Measurements taken from publication PMC9304066, “H2S biogenesis by cystathionine beta-synthase: mechanism of inhibition by aminooxyacetic acid and unexpected role of serine” (Cellular and Molecular Life Sciences: CMLS, 2022).
Several values for one entry are separate records, joined by “and”; a condition that tells them apart may be missing. Identical values can stand only once.

Columns and labels:
[1] = target: T1, tScCBS (Saccharomyces cerevisiae, UniProt P32582); assay: UV-Vis absorption titration of tScCBS (dissociation constants); assay type: binding; settings: tScCBS 1 mg/mL, pH 8.5; decrease in absorbance at 412 nm (AOAA), increase at 460 nm (Ser) or 440 nm (Cys); 3 min incubation; read-out: Dissociation constant Kd (UV-Vis absorption)
T1 construct: 6xHis (C); made in house
T1 sequence (P32582 1-345): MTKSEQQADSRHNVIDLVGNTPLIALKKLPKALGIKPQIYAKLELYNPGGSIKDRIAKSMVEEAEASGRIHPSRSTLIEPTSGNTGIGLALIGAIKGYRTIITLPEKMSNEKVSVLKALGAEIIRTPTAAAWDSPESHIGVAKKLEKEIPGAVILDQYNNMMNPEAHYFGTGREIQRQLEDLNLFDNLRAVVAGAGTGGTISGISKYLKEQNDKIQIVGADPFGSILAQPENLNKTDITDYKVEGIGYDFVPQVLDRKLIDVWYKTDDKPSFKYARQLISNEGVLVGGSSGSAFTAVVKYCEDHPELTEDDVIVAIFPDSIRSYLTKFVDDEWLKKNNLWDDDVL
Experimental: (§1) CBS enzymes. Recombinant truncated Saccharomyces cerevisiae CBS lacking the C-terminal regulatory domain (residues 346–507) and carrying the C-terminal 6xHis tag (tScCBS) was prepared as described previously. Engineered recombinant Homo sapiens CBS lacking a loop protruding from the central β-strand of the CBS2 domain corresponding to the residues 516–525 (HsCBS; described in detail in [21]) was purchased from GenScript.
(§2) UV − Vis and fluorescence spectroscopy. Absorption spectra were collected on a Tecan Infinite M200 Pro spectrophotometer in a buffer containing 50 mM Tris–HCl pH 8.5, 20 mM NaCl and 0.5 mM tris(2-carboxyethyl)phosphine (TCEP). All the spectra were carried out with a protein concentration of 1 mg/mL with a 1 cm path-length quartz cuvette in a total volume of 150 µL. tScCBS was titrated directly in a cuvette by successive additions of different concentrations of AOAA, Ser and Cys, respectively, and spectra were recorded between 240 and 600 nm after an incubation time of 3 min at RT. Fluorescence emission spectra were collected under the same conditions upon PLP excitation at 410 nm. Blank spectra were subtracted from sample spectra.

[2] = target: T1, tScCBS; assay: Kinetics of AOAA binding to tScCBS and displacement by substrate, followed by absorption spectra
Experimental: as §2
Fig. 2 Spectroscopic rescue of AOAA-inhibited tScCBS by Ser. A Changes in the absorption spectra of tScCBS upon addition of 20 µM AOAA (cyan lines) followed for 1 h. Subsequently, 1 mM Ser (gray lines) was added and spectral changes were followed for additional 1 h. B Representative kinetic fitting of AOAA binding to tScCBS followed at 412 nm. C Representative kinetic fitting of AOAA displacement from tScCBS by Ser by following changes at 370 nm and 460 nm. The kinetic parameters of the observed processes are shown as insets in panels B and C. Far-UV (D) and near-UV (E) CD spectra of tScCBS (black), tScCBS complexed with 20 µM AOAA (cyan) or 1 mM Ser (magenta) and tScCBS complexed with 20 µM AOAA followed by 1 h incubation with 1 mM Ser (green).

[3] = target: T1, tScCBS; assay: CBL-LDH coupled-coupled CBS assay, tScCBS; assay type: biochemical
Experimental: CBS coupled-coupled assay. CBS canonical activity utilizing Ser and Hcy was determined using cystathionine beta-lyase (CBL) and lactate-dehydrogenase (LDH) coupled-coupled assay as described previously with a few modifications. Native L-LDH from rabbit muscle was purchased from Sigma (catalog no. L2500) and recombinant CBL was purchased from Creative Enzymes (catalog no. NATE-1146). In a final volume of 150 µL, the reaction mixture contained 50 mM Tris–HCl pH 8.9, 20 µM PLP, 500 µM NADH, 1.3 µM LDH, 0.1 µM CBL, 0–20 mM Ser (or 0–50 mM Cys) and 500 ng of tScCBS or HsCBS. Assays with HsCBS were carried out in the absence or presence of 500 µM CBS allosteric activator S-adenosylmethionine (SAM). The reaction was triggered by the addition of 2 mM Hcy and the oxidation of NADH to NAD^+ was followed by monitoring the decrease in absorbance at 340 nm over time (ε340 = 6220 M^−1.cm^−1). […] All measurements were performed in triplicates using Tecan Infinite 200 PRO microplate reader. Kinetic data were analyzed using GraphPad Prism software.

[4] = test system: HEK293 cells; assay: Detection of H2S production in live cells (AzMC imaging); assay type: cell-based, human
Experimental: Cell culture. The human embryonic kidney cell line HEK293 (ATCC CRL-1573) was cultured in Dulbecco’s Modified Eagle Medium (DMEM) containing 4.5 g/L glucose. The culture medium was supplemented with 10% (v/v) heat-inactivated fetal bovine serum, 2 mM Glutamax, non-essential amino acids, 100 U/ml penicillin and 100 μg/ml streptomycin. Cells were grown in a humidified incubator at 37 °C and 5% CO2 atmosphere. Cell viability and proliferation were assessed using MTT and BrdU assay, respectively, essentially as described previously. Detection of H2S production in live cells. Cells were seeded in black 96-well plates with optical bottom (15,000 cells/well). The following morning, the cells were treated with 150 µM AOAA, 1/3/10 mM Ser or their combination for 24 h. After that the culture medium was replaced with Hank’s Balanced Salt Solution (HBSS) buffer supplemented with 100 μM AzMC and further incubated for 1 h. Dye’s specific fluorescence was visualized using a Leica DFC360 FX microscope and images were captured with Leica Application Suite X software (Leica Biosystems, Germany). Images were analyzed with ImageJ software (version 1.8.0; NIH, Bethesda, MD, USA) and data were analyzed using GraphPad Prism 8 (GraphPad Software Inc.; San Diego, CA, USA).

[5] = test system: human recombinant CSE; design: method as in PMID 23488457; settings: in vitro; cited from earlier work
[6] = target: T1, tScCBS; assay: Fluorescence emission titration of tScCBS (PLP excitation at 410 nm); assay type: binding; settings: tScCBS 1 mg/mL, pH 8.5; decrease in emission at 520 nm, excitation 410 nm; read-out: Dissociation constant Kd (fluorescence)
Experimental: as §1, §2

NOCC(=O)O [AOAA, aminooxyacetic acid]
Kd [1]: ~6 µM | Rate constant k of PLP-AOAA oxime intermediate formation ([2]; 20 µM AOAA added to tScCBS, followed at 412 nm): 0.22 min⁻¹ and 0.22 ± 0.05 min⁻¹ | Reduction of activity catalyzing condensation of Cys and Hcy yielding H2S ([3]; AOAA-inhibited tScCBS (200 µM AOAA)): 85% | Effect on condensation of Ser and Hcy (canonical reaction) ([3]; tScCBS inhibited by 200 µM AOAA, 5 mM Ser + 2 mM Hcy): not impaired | H2S-producing activity, % of the controls ([4]; HEK293, 150 µM AOAA, 24 h): ~ 15% | Potency inhibiting human recombinant CSE relative to CBS [5]: ~ 8 times

N[C@@H](CO)C(=O)O [Ser, serine]
Kd [1]: ~58 µM and 58.6 µM | Kd [6]: 39.5 ± 8.26 µM | Rate constant k of AOAA displacement from tScCBS by Ser ([2]; 1 mM Ser added after 1 h with 20 µM AOAA, changes at 370 nm and 460 nm): 0.07 ± 0.01 min⁻¹ | Slower formation of PLP-aminoacrylate intermediate compared with PLP-AOAA oxime formation ([2]; 1 mM Ser after 20 µM AOAA): approximately 3 × | Reduction of cellular H2S productivity ([4]; HEK293, 10 mM Ser in growth medium): ~ 29% | Reduction of H2S production ([4]; HEK293, Ser added to medium (1/3/10 mM, 24 h), concentration-dependent, 'up to'): ~ 30% | Recovery of H2S-producing capacity, % of control WT activity ([4]; HEK293 inhibited by 150 µM AOAA, with 1, 3 or 10 mM Ser): 82–89%
